Here are results for four molecules from patent US20070287727A1, “Anti-Nicotine Treatment” (priority 2006, published 2007).

One data set deals with heavy smokers. Nature of the data set: Treatment of heavy smokers using anticholinergic therapy. Format: in vivo, human. To be noted: heavy smokers unable to visit for a booster. The text has this:
Some individuals were characterized as heavy smokers and smoked 20 or more cigarettes per day. […] All of these patients received normal supportive treatment by sedative drugs and counseling on coping with and adjusting to addiction.
Booster injections were offered to all patients.

For data set [1] the following is noted: intramuscular or intravenous injection; cited from earlier work.
A further data set has as its system monkeys. The following applies: cited from earlier work.
The test system of data set [2] is superior cervical ganglia. To be noted: cited from earlier work.

In the case of `CN1[C@@H]2CC[C@H]1C[C@@H](OC(c1ccccc1)c1ccccc1)C2` [benztropine, 8-azabicyclo [3.2.1]octane, 3-(diphenylmethoxy)-, endo, methanesulfonate], the patient-reported well-being entry with heavy smokers (a few weeks after treatment) is on record as “feeling well”. Also, in the data set with heavy smokers (given during the 5 days after the first injection), the “relapse to smoke again” value was “no immediate or short term relapse”. Moreover, the onset of action entry in data set [1] is reported as “within minutes”.

For `C[C@H](N)Cc1ccccc1` [d-amphetamine], the “effect on smoking (puffing pattern)” value with monkeys is on record as “decreased smoking”.

With `CN1CCCC1c1cccnc1` (stereo not shown) [nicotine], the acetylcholinesterase entry in data set [2] (after withdrawal of nicotine) is on record as “about 117 % of controls”. Moreover, the acetylcholine increase entry in data set [2] (chronic nicotine treatment) is given as “about 35%”.

On to `CN1[C@@H]2C[C@@H](OC(=O)[C@H](CO)c3ccccc3)C[C@H]1[C@@H]1O[C@@H]12` [scopolamine], for which, in the data set on monkeys, the “effect on smoking (puffing pattern)” value is “decreased smoking”.
